Test results: patent publication US6339103B1, “Fungicides” (Aventis CropScience UK Limited, priority 1998, dated 2002)

Tested on: Plasmopara viticola
Assay: Vine downy mildew disease control, foliar spray on vines
Type: in vivo
Conditions: aqueous solution sprayed onto vines to run off, then inoculated with 100,000 spores per ml, compared with untreated plants
Experimental: Aqueous solutions of the compound of Example 1 were sprayed at various concentrations onto vines to run off using a hand-sprayer. Plants were then inoculated by hand spraying with a spore suspension of 100,000 spores per ml of Plasmopara viticola. For the purposes of comparison the vines were sprayed also with the commercially available propamocarb hydrochloride.
Plants were assessed for degree of disease control compared with untreated plants.

CCCOC(=O)NCCCN(C)C.Cl [propamocarb hydrochloride, propyl 3-(dimethylamino)propylcarbamate hydrochloride]
% Control (rate 400 ppm): 4.2%
% Control (rate 800 ppm): 14.6%

CCCOC(=O)NCCCN(C)C.CCO[PH](=O)O [Compound of invention, dimethyl-[3-(propoxycarbonylamino)propyl]ammonium O-ethylphosphonate]
% Control (rate 400 ppm): 27.6%
% Control (rate 800 ppm): 81.5%
